Source: ChEMBL document CHEMBL5143660, “Investigation on the chemical space of the substituted triazole thio-benzoxazepinone RIPK1 inhibitors” (Eur J Med Chem, 2022)
Calls of active or inactive are those of the source. The calls are words filed in the database; no cut-off is given here.

Assays:
[1] = biological target: T1, Mixed lineage kinase domain-like protein (Homo sapiens) (UniProt Q8NB16); test: Inhibition of downstream MLKL phosphorylation in TSZ-induced human HT-29 cells at 10 nM pretreated with compound followed by TSZ stimulation and measured after 2 to 6 hrs by immunoblotting analysis; format: cell-based; conditions: time 2-6 hrs
T1 sequence (whole entry): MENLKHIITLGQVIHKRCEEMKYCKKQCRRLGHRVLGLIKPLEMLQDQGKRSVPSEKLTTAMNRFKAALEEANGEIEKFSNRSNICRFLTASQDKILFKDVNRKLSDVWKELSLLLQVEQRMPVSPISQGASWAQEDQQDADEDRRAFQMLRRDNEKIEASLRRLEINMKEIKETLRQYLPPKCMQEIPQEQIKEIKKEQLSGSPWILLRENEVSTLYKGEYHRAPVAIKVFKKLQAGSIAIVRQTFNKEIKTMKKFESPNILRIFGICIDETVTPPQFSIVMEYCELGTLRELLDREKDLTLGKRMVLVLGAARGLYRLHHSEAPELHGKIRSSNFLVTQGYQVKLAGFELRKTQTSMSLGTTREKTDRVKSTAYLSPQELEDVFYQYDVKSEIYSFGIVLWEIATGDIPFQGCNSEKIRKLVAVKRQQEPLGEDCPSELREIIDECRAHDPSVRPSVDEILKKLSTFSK

Mus musculus [2] = test: Anti-necroptic activity against mTNFalpha-induced systemic inflammatory response syndrome C57BL/6J mouse model assessed as protection of body temperature pretreated with compound at 5 to 15 mg/kg, IG administered as single dose followed by mTNFalpha injection measured after 2 to 3 hrs; format: functional, organism-based; conditions: dose 5-15 mg/kg, time 2-3 hrs
HT-29 [3] = test: Anti-necroptic activity in human HT-29 cells assessed as inhibition of TCZ induced necroptosis measured after 16 hrs by celltiter-glo luminescent cell viability assay; format: functional, cell-based; conditions: dose 0.781-200 nM, DDE = dose-dependent effect
HT-29 [4] = test: Anti-necroptic activity in human HT-29 cells assessed as inhibition of TSZ induced necroptosis measured after 16 to 24 hrs by celltiter-glo luminescent cell viability assay; format: functional, cell-based
[5] = biological target: Receptor-interacting serine/threonine-protein kinase 3 (Homo sapiens) (UniProt Q9Y572); test: Inhibition of RIPK3 phosphorylation in TSZ-induced human HT-29 cells pretreated with compound followed by TSZ stimulation and measured after 6 hrs by immunoblotting analysis; format: cell-based; conditions: dose 0.5-20 nM, DDE = dose-dependent effect
Receptor-interacting serine/threonine-protein kinase 3 (Homo sapiens), sequence (Q9Y572 whole entry, looked up): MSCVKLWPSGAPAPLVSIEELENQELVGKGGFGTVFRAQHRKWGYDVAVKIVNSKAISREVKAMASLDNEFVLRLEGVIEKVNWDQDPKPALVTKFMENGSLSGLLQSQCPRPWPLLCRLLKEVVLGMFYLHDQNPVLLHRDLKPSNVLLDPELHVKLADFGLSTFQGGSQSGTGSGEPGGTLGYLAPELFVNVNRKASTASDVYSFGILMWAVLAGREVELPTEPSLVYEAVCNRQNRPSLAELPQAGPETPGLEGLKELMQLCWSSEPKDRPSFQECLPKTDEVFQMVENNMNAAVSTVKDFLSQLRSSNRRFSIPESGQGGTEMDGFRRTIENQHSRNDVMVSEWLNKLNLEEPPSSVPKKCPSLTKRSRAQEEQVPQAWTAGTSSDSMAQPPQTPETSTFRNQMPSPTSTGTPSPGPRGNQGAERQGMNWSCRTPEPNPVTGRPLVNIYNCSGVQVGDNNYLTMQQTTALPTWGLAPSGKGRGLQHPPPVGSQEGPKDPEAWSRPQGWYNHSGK

HT-29 [6] = test: Inhibition of RIPK1-RIPK3-MLKL pathway in TSZ induced human HT-29 cells assessed as reduction in necrosome formation at 10 nM measured after 6 hrs by Western blot analysis; format: cell-based
U-937 = test: Anti-necroptic activity in human U-937 cells assessed as inhibition of TSZ induced necroptosis pretreated with compound followed by TSZ addition ans measured after 12 hrs by celltiter-glo luminescent cell viability assay; format: functional, cell-based; conditions: dose 0.312-200 nM, DDE = dose-dependent effect
Mus musculus [7] = test: Anti-necroptic activity against mTNFalpha induced C57BL/6J mouse systemic inflammatory response syndrome model assessed as survival rate pretreated with compound at 5 mg/kg, IG administered as single dose followed by mTNFalpha injection and measured over 60 hrs; format: functional
[8] = biological target: T2, Receptor-interacting serine/threonine-protein kinase 1 (Homo sapiens) (UniProt Q13546); test: Inhibition of RIPK1 phosphorylation in TSZ-induced human HT-29 cells pretreated with compound followed by TSZ stimulation and measured after 6 hrs by immunoblotting analysis; format: cell-based; conditions: dose 0.5-20 nM, DDE = dose-dependent effect
T2 sequence (whole entry): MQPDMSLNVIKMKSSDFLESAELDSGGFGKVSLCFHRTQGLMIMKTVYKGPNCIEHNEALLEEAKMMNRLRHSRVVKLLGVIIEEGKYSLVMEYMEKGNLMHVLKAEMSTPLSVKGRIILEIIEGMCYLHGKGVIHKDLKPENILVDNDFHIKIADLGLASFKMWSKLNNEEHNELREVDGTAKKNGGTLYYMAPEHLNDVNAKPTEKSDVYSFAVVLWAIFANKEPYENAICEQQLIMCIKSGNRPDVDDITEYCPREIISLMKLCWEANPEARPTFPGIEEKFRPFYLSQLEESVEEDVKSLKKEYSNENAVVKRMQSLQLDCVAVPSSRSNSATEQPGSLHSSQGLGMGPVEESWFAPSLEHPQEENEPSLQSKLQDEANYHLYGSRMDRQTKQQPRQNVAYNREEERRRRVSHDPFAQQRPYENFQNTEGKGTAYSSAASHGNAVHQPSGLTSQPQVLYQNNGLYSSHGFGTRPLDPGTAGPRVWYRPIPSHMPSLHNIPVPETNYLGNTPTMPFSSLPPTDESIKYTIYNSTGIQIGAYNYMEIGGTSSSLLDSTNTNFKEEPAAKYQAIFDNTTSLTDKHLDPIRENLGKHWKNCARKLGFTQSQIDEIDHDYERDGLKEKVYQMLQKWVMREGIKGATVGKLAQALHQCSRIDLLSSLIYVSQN

[9] = Cytotoxicity against human HT-29 cells assessed as reduction in cell viability; format: toxicity, cell-based
[10] = biological target: Receptor-interacting serine/threonine-protein kinase 3 (Homo sapiens) (UniProt Q9Y572); test: Inhibition of RIPK3 phosphorylation in TSZ-induced human HT-29 cells at 10 nM pretreated with compound followed by TSZ stimulation and measured after 2 to 6 hrs by immunoblotting analysis; format: cell-based; conditions: time 2-6 hrs
HT-29 [11] = test: Anti-necroptic activity in human HT-29 cells assessed as inhibition of TSZ induced necroptosis measured after 12 hrs by celltiter-glo luminescent cell viability assay; format: functional, cell-based; conditions: dose 0.195-200 nM, DDE = dose-dependent effect
[12] = biological target: T2, Receptor-interacting serine/threonine-protein kinase 1 (Homo sapiens); test: Inhibition of RIPK1 phosphorylation in TSZ-induced human HT-29 cells at 2 to 4 nM pretreated with compound followed by TSZ stimulation and measured after 6 hrs by immunoblotting analysis; format: cell-based; conditions: dose 2-4 nM
[13] = biological target: T3, Receptor-interacting serine/threonine-protein kinase 1 (Homo sapiens, UniProt Q13546); test: Binding affinity to wild-type human partial length RIPK1 (M1 to K305 residues) expressed in bacterial expression system incubated for 1 hr under shaking condition by Kinomescan method
T3 sequence (Q13546 whole entry): T2 sequence (whole entry)

[14] = biological target: Receptor-interacting serine/threonine-protein kinase 3 (Homo sapiens) (UniProt Q9Y572); test: Inhibition of RIPK3 phosphorylation in TSZ-induced human HT-29 cells at 2 to 4 nM pretreated with compound followed by TSZ stimulation and measured after 6 hrs by immunoblotting analysis; format: cell-based; conditions: dose 2-4 nM
[15] = biological target: T2, Receptor-interacting serine/threonine-protein kinase 1 (Homo sapiens); test: Inhibition of RIPK1 phosphorylation in TSZ-induced human HT-29 cells at 10 nM pretreated with compound followed by TSZ stimulation and measured after 2 to 6 hrs by immunoblotting analysis; format: cell-based; conditions: time 2-6 hrs
L929 = test: Anti-necroptic activity in mouse L929 cells assessed as inhibition of TZ induced necroptosis pretreated with compound followed by TZ addition and measured after 12 hrs by celltiter-glo luminescent cell viability assay; format: functional, cell-based; conditions: dose 0.078-10 µM, DDE = dose-dependent effect
Mus musculus [16] = test: Anti-necroptic activity against mTNFalpha induced C57BL/6J mouse systemic inflammatory response syndrome model assessed as survival rate pretreated with compound at 15 mg/kg, IG administered as single dose followed by mTNFalpha injection and measured over 60 hrs; format: functional
[17] = biological target: T1, Mixed lineage kinase domain-like protein (Homo sapiens); test: Inhibition of MLKL phosphorylation in TSZ-induced human HT-29 cells pretreated with compound followed by TSZ stimulation and measured after 6 hrs by immunoblotting analysis; format: cell-based; conditions: dose 0.5-20 nM, DDE = dose-dependent effect
Mus musculus [18] = test: Anti-necroptic activity against mTNFalpha induced C57BL/6J mouse systemic inflammatory response syndrome model assessed as survival rate pretreated with compound at 10 mg/kg, IG administered as single dose followed by mTNFalpha injection and measured over 60 hrs; format: functional
[19] = biological target: T1, Mixed lineage kinase domain-like protein (Homo sapiens); test: Inhibition of MLKL phosphorylation in TSZ-induced human HT-29 cells at 2 to 4 nM pretreated with compound followed by TSZ stimulation and measured after 6 hrs by immunoblotting analysis; format: cell-based; conditions: dose 2-4 nM
Mus musculus [20] = test: Anti-necroptic activity against mTNFalpha-induced systemic inflammatory response syndrome C57BL/6J mouse model assessed as protection of body temperature pretreated with compound at 5 to 20 mg/kg, IG administered as single dose followed by mTNFalpha injection measured after 2 to 3 hrs; format: functional, organism-based; conditions: dose 5-20 mg/kg, time 2-3 hrs
HT-29 [21] = test: Inhibition of RIPK1-RIPK3-MLKL pathway in TSZ induced human HT-29 cells assessed as reduction in necrosome formation at 20 nM measured after 6 hrs by Western blot analysis; format: cell-based
[22] = biological target: T1, Mixed lineage kinase domain-like protein (Homo sapiens); test: Inhibition of downstream MLKL phosphorylation in TSZ-induced human HT-29 cells at 20 nM pretreated with compound followed by TSZ stimulation and measured after 2 to 6 hrs by immunoblotting analysis; format: cell-based; conditions: time 2-6 hrs
Mus musculus [23] = test: Anti-necroptic activity against mTNFalpha induced C57BL/6J mouse systemic inflammatory response syndrome model assessed as survival rate pretreated with compound at 5 to 20 mg/kg, IG administered as single dose followed by mTNFalpha injection and measured over 60 hrs; format: functional; conditions: dose 5-20 mg/kg
[24] = biological target: Receptor-interacting serine/threonine-protein kinase 3 (Homo sapiens) (UniProt Q9Y572); test: Inhibition of RIPK3 phosphorylation in TSZ-induced human HT-29 cells at 20 nM pretreated with compound followed by TSZ stimulation and measured after 2 to 6 hrs by immunoblotting analysis; format: cell-based; conditions: time 2-6 hrs
[25] = biological target: Receptor-interacting serine/threonine-protein kinase 3 (Homo sapiens) (UniProt Q9Y572); test: Inhibition of RIPK3 phosphorylation in TSZ-induced human HT-29 cells at 5 to 20 nM pretreated with compound followed by TSZ stimulation and measured after 6 hrs by immunoblotting analysis; format: cell-based; conditions: dose 5-20 nM
[26] = biological target: T2, Receptor-interacting serine/threonine-protein kinase 1 (Homo sapiens); test: Inhibition of RIPK1 phosphorylation in TSZ-induced human HT-29 cells at 20 nM pretreated with compound followed by TSZ stimulation and measured after 2 to 6 hrs by immunoblotting analysis; format: cell-based; conditions: time 2-6 hrs
[27] = biological target: T2, Receptor-interacting serine/threonine-protein kinase 1 (Homo sapiens); test: Inhibition of RIPK1 phosphorylation in TSZ-induced human HT-29 cells at 5 to 20 nM pretreated with compound followed by TSZ stimulation and measured after 6 hrs by immunoblotting analysis; format: cell-based; conditions: dose 5-20 nM
[28] = biological target: T1, Mixed lineage kinase domain-like protein (Homo sapiens); test: Inhibition of MLKL phosphorylation in TSZ-induced human HT-29 cells at 5 to 20 nM pretreated with compound followed by TSZ stimulation and measured after 6 hrs by immunoblotting analysis; format: cell-based; conditions: dose 5-20 nM

SMILES | Activity (HT-29 [3]) | EC50 (HT-29 [4]) [nM] | inhibition [5] | Activity (U-937) | inhibition [8] | CC50 [9] [nM] | Activity (HT-29 [11]) | Kd [13] [nM] | Activity (L929) | inhibition [17] | further results
CN1C(=S)[C@@H](NC(=O)c2nc(Cc3ccccc3)n(C)n2)COc2ccccc21 | Dde | 2.5 | Dde | Dde | Dde | > 100000 | Dde | 31 | Dde | Dde | inhibition [1]: Active; Activity (Mus musculus [2]): Active; inhibition (HT-29 [6]): Active; Activity (Mus musculus [7]): 70%; inhibition [10]: 100%; inhibition [12]: 100%; inhibition [14]: 100%; inhibition [15]: 100%; Activity (Mus musculus [16]): 100%; Activity (Mus musculus [18]): 100%; inhibition [19]: 100%
CN1C(=S)[C@@H](NC(=O)c2nc(Cc3ccccc3)n(CCF)n2)COc2ccccc21 | Dde | 8.9 | Dde | Dde | Dde | > 100000 | Dde | 60 | Dde | Dde | Activity (Mus musculus [20]): Active; inhibition (HT-29 [21]): Active; inhibition [22]: Active; Activity (Mus musculus [23]): 90%; inhibition [24]: 100%; inhibition [25]: 100%; inhibition [26]: 100%; inhibition [27]: 100%; inhibition [28]: 100%
